The target in the assay is T1, human Ox2R (Homo sapiens, UniProt O43614).
T1 construct: The gene encoding hOx2R was subcloned into the expression plasmid pcDNA5/FRT/TO; expressed in transfected cells; host or cells: CHO Flp-In cells (pcDNA5/FRT/TO with pOG44 Flp recombinase vector, hygromycin B selection)
T1 sequence (O43614 1-444): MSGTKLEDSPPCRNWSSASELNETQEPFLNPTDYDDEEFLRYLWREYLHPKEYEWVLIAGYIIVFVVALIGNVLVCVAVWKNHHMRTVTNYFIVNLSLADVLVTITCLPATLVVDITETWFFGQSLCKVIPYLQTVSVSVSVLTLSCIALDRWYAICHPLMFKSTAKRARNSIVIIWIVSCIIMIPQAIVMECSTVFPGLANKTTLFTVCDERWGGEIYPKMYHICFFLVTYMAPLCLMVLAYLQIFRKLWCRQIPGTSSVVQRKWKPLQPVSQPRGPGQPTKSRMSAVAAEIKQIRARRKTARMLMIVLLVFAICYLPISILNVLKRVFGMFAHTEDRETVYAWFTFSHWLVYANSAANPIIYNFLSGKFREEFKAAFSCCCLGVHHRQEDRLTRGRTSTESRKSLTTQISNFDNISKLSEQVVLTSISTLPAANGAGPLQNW
The assay is described as follows: Measurement of OX2R agonist activity (cell-based calcium release assay). As to conditions: hOx2R-CHO Flp-In cells, n≥2 tests; for EC50: intracellular calcium, read-out: EC50; for Emax (%) / Emax: normalized to assay buffer (0%) and 10 μM Danavorexton (100%); for Emax: read-out: Emax (%). The procedure, abridged:
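CHO Flp-In cells stably expressing human Ox2R, dye-loaded 1 h at 37 °C in HBSS/20 mM HEPES pH 7.4 with 2.5 mM probenecid and 10 mM CaCl2, then stimulated with compound.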

In the case of `CS(=O)(=O)NC1CCC2(C1)c1nc(co1)COc1c(F)cccc1-c1cc(ccc1F)C2F` (single isomer, unassigned) [Example 78, N-[(1′S,14R,15S or 15R)-6,15,19-trifluorospiro[8,12-dioxa-21-azatetracyclo[14.3.1.110,13.02,7]henicosa-1(19),2,4,6,10,13(21),16(20),17-octaene-14,3′-cyclopentane]-1′-yl]methanesulfonamide], the EC50 worked out at 0.17 nM and the “Emax (%)” value amounted to 95%.

In the case of `C[C@H]1C[C@H](NS(C)(=O)=O)C[C@]12Cc1ccc(F)c(c1)-c1cccc(F)c1OCc1coc2n1` [Example 60, N-[(1′S,4′S,14R)-6,19-difluoro-4′-methyl-spiro[8,12-dioxa-21-azatetracyclo[14.3.1.110,13.02,7]henicosa-1(19),2,4,6,10,13(21),16(20),17-octaene-14,3′-cyclopentane]-1′-yl]methanesulfonamide or N-[(1′R,4′R,14S)-6,19-difluoro-4′-methyl-spiro[8,12-dioxa-21-azatetracyclo[14.3.1.110,13.02,7]henicosa-1(19),2,4,6,10,13(21),16(20),17-octaene-14,3′-cyclopentane]-1′-yl]methanesulfonamide], the concentration giving a half-maximal response (EC50) worked out at 0.33 nM and the “Emax (%)” value stood at 100%.

With `CS(=O)(=O)N[C@H]1CC[C@@]2(Cc3ccc(C(F)(F)F)c(c3)-c3cccc(F)c3OCc3coc2n3)C1` [Example 23, N-[(1′S,14R)-6-fluoro-19-(trifluoromethyl)spiro[8,12-dioxa-21-azatetracyclo[14.3.1.110,13.02,7]henicosa-1(19),2,4,6,10,13(21),16(20),17-octaene-14,3′-cyclopentane]-1′-yl]methanesulfonamide], the EC50 came out at 1.3 nM and the Emax stood at 98%.

`CCS(=O)(=O)N[C@H]1CC[C@@]2(Cc3ccc(F)c(c3)-c3ccc(F)c(F)c3OCc3coc2n3)C1` [Example 35, N-[(1′S,14R)-5,6,19-trifluorospiro[8,12-dioxa-21-azatetracyclo[14.3.1.110,13.02,7]henicosa-1(19),2,4,6,10,13(21),16(20),17-octaene-14,3′-cyclopentane]-1′-yl]ethanesulfonamide]: the EC50 was 1.4 nM and the Emax was 100%.

In the case of `CS(=O)(=O)N[C@H]1CC[C@@]2(Cc3ccc(F)c(c3)-c3cccc(F)c3OCc3ccnc2n3)C1` [Example 82, N-[(1′S,15R)-6,20-difluorospiro[8-oxa-13,22-diazatetracyclo[15.3.1.110,14.02,7]docosa-1(20),2(7),3,5,10,12,14(22),17(21),18-nonaene-15,3′-cyclopentane]-1′-yl]methanesulfonamide], the concentration for a half-maximal effect (EC50) amounted to 3.7 nM and the Emax turned out to be 100%.

Regarding `CN(C)S(=O)(=O)N[C@H]1CC[C@@]2(Cc3ccc(F)c(c3)-c3ccccc3OCc3coc2n3)C1` [Example 13, (3′S,14R)-3′-(dimethylsulfamoylamino)-19-fluoro-spiro[8,12-dioxa-21-azatetracyclo[14.3.1.110,13.02,7]henicosa-1(19),2,4,6,10,13(21),16(20),17-octaene-14,1′-cyclopentane]], the EC50 worked out at 0.28 nM and the Emax came to 95%.

As to `CS(=O)(=O)N[C@H]1CC[C@]2(CC1)Cc1cc(c(F)cc1F)-c1cccc(F)c1OCc1coc2n1` [Example 96, trans-N-(6,17,19-trifluorospiro[8,12-dioxa-21-azatetracyclo[14.3.1.110,13.02,7]henicosa-1(19),2,4,6,10,13(21),16(20),17-octaene-14,4′-cyclohexane]-1′-yl)methanesulfonamide], the 50% effective concentration (EC50) was 0.23 nM and the Emax worked out at 98%.

For the compound `CS(=O)(=O)N[C@H]1CC[C@@]2(Cc3ccc(F)c(c3)-c3ccccc3OCc3ccnc2n3)C1` [Example 90, N-[(1′S,15R)-20-fluorospiro[8-oxa-13,22-diazatetracyclo[15.3.1.110,14.02,7]docosa-1(20),2,4,6,10,12,14(22),17(21),18-nonaene-15,3′-cyclopentane]-1′-yl]methanesulfonamide], the EC50 is 1.1 nM and the Emax worked out at 110%.

As for `CS(=O)(=O)N[C@H]1CC[C@]2(CC1)Cc1cccc(c1)-c1cccc(F)c1OCc1coc2n1` [Example 75, N-(cis)-(6-fluorospiro[8,12-dioxa-21-azatetracyclo[14.3.1.110,13.02,7]henicosa-1(20),2,4,6,10,13(21),16,18-octaene-14,4′-cyclohexane]-1′-yl)methanesulfonamide], the EC50 amounted to 1.4 nM and the Emax came to 100%.

Regarding `CS(=O)(=O)N[C@H]1CC[C@@]2(Cc3cc(ccc3F)-c3cccc(Cl)c3OCc3coc2n3)C1` [Example 29, N-[(1′S,14R)-6-chloro-17-fluoro-spiro[8,12-dioxa-21-azatetracyclo[14.3.1.110,13.02,7]henicosa-1(19),2,4,6,10,13(21),16(20),17-octaene-14,3′-cyclopentane]-1′-yl]methanesulfonamide], the EC50 stood at 2 nM and the Emax was 98%.

Turning to `CS(=O)(=O)N[C@H]1CC[C@@]2(Cc3ccc(F)c(c3)-c3cccc(F)c3OCc3csc2n3)C1` [Example 46, N-[(1′S,14R)-6,19-difluorospiro[8-oxa-12-thia-21-azatetracyclo[14.3.1.110,13.02,7]henicosa-1(19),2,4,6,10,13(21),16(20),17-octaene-14,3′-cyclopentane]-1′-yl]methanesulfonamide], the EC50 came to 0.14 nM and the Emax is 99%.

Consider `CS(=O)(=O)N[C@H]1CC[C@]2(CC1)Cc1ccc(F)c(c1)-c1cccc(F)c1OCc1coc2n1` [Example 97, trans-N-(6,19-difluorospiro[8,12-dioxa-21-azatetracyclo[14.3.1.110,13.02,7]henicosa-1(19),2,4,6,10,13(21),16(20),17-octaene-14,4′-cyclohexane]-1′-yl)methanesulfonamide], for which the EC50 was determined as 0.39 nM and the Emax is 96%.

In the case of `Cc1ccc2cc1-c1cccc(F)c1OCc1coc(n1)[C@]1(CC[C@H](NS(C)(=O)=O)C1)C2` [Example 22, N-[(1′S,14R)-6-fluoro-19-methyl-spiro[8,12-dioxa-21-azatetracyclo[14.3.1.110,13.02,7]henicosa-1(19),2,4,6,10,13(21),16(20),17-octaene-14,3′-cyclopentane]-1′-yl]methanesulfonamide], the EC50 was found to be 0.82 nM and the Emax is 96%.

Consider `CCS(=O)(=O)N[C@H]1CC[C@@]2(Cc3cc(c(F)cc3F)-c3cccc(F)c3OCc3coc2n3)C1` [Example 84, N-[(1′S,14R)-6,17,19-trifluorospiro[8,12-dioxa-21-azatetracyclo[14.3.1.110,13.02,7]henicosa-1(19),2,4,6,10,13(21),16(20),17-octaene-14,3′-cyclopentane]-1′-yl]ethanesulfonamide], for which the concentration giving a half-maximal response (EC50) came out at 0.25 nM and the Emax is 100%.

Consider `CS(=O)(=O)N[C@H]1CC[C@@]2(Cc3cc(ccc3F)-c3cccc(F)c3OCc3coc2n3)C1` [Example 17, N-[(1′S,14R)-6,17-difluorospiro[8,12-dioxa-21-azatetracyclo[14.3.1.110,13.02,7]henicosa-1(19),2,4,6,10,13(21),16(20),17-octaene-14,3′-cyclopentane]-1′-yl]methanesulfonamide], for which the EC50 amounted to 0.22 nM and the Emax turned out to be 96%.

As to `CS(=O)(=O)N[C@H]1CC[C@@]2(Cc3ccc(F)c(c3)-c3ccc(F)cc3OCc3coc2n3)C1` [Example 15, N-[(1′S,14R)-5,19-difluorospiro[8,12-dioxa-21-azatetracyclo[14.3.1.110,13.02,7]henicosa-1(19),2,4,6,10,13(21),16(20),17-octaene-14,3′-cyclopentane]-1′-yl]methanesulfonamide], the EC50 turned out to be 8.1 nM and the Emax was 98%.

As to `CS(=O)(=O)N[C@H]1CC[C@@]2(CO[C@H]3CC[C@H](CC3)c3cccc(c3)OCc3cnc2o3)C1` [Example 73, N-[(1s,1′S,13S,16s)-spiro[7,15,21-trioxa-11-azatetracyclo[14.2.2.12,6.19,12]docosa-2,4,6(22),9,11-pentaene-13,3′-cyclopentane]-1′-yl]methanesulfonamide], the EC50 was found to be 0.94 nM and the Emax worked out at 98%.
